Columns and labels:
Format in all cases: cell-based
[1] = test system: HL-60 cancer cells adhering to vascular endothelial cells of the normal human umbilical cord; assay: inhibition of adhesion of HL-60 cancer cells to rhIL1β-stimulated vascular endothelial cells, oily emulsion; details: 20 μg/ml equivalent; for Amount of HL-60 cancer cells adhered (fluorescence intensity): rhIL1β 200 U/ml, 485 nm/535 nm
Description: (§1) A mixed solution of 6 mg of egg yolk lecithin (manufactured by Nacalaitesque Inc.), 30 μl of soybean oil J. P. (manufactured by Yoshida Seiyaku), 470 μl of distilled water for injection (manufacturedby Otsuka Seiyaku) and 125 μg of a compound of the invention was ultrasonicated (an output of 90 watts) for 10 min. to prepare an oily emulsion. The oily emulsion was further passed through a polycarbonate membrane filter having 0.2 μm average pore diameter (manufactured by Millipore) to provide an average particle size of 0.2 μm.
(§2) Vascular endothelial cells of the normal human umbilical cord grown to confluence were stimulated in 24-well plates with 200 U/ml of rhIL1β at 37° C. for 4 hours. After removal of the supernatant by suction, oily emulsions each prepared from a compound of the invention in an amount of 20 μg/ml equivalent were added except for the rhIL1β-untreated group (sample 1) and the treated groups (samples 2 and 3). The mixtures were then allowed to react at room temperature for 30 min. Subsequently, promyelocytic leukemia cell line HL-60 with 2',7'-bis(carboxyethyl)-5,6-carboxyfluorescene acetoxymethyl ester fluorescent dye enclosed was added at a level of 1×10^6 cells per well followed by centrifugal operation at 100 rpm for 20 min. Each well was washed three times followed by addition of 0.5 ml of 0.5% Triton X-100 and stirring. The contents were divided into 100 μl portions in 96-well plates and measurement was made on a Baxter fluorometer at 485 nm/535 nm.
4: rhIL1β-treated group+2→3 sialyl Lewis X (natural type)-containing oily emulsion dispersion-treated group
5: rhlL1β-treated group+compound 5E-containing oily emulsion dispersion-treated group (OEG)
(§3) 6: rhIL1β-treated group+compound 5A-containing oily emulsion dispersion-treated group (2EG)
(§4) 7: rhIL1β-treated group+compound 5B-containing oily emulsion dispersion-treated group (3EG)
(§5) 8: rhIL1β-treated group+compound 5C-containing oily emulsion dispersion-treated group (4EG)
(§6) 9: rhIL1β-treated group+compound 5D-containing oily emulsion dispersion-treated group (5EG)
% inhibition of adhesion=100-[(fluorescence intensity for rhIL1β-treated group+compound-free or a compound-containing oily emulsion dispersion-treated group)-(fluorescence intensity for rhIL1β-untreated group)/(fluorescence intensity for rhIL1β-treated group-fluorescence intensity for rhIL1β-untreatedgroup)]×100

[2] = test system: human normal lymphocytes adhering to vascular endothelial cells of the normal human umbilical cord; assay: inhibition of adhesion of human normal lymphocytes to rhIL1β-stimulated vascular endothelial cells, liposome dispersion; details: 20 μg/ml equivalent; for Amount of human normal lymphocytes adhered (fluorescence intensity): rhIL1β 200 U/ml, 485 nm/535 nm
Description: A solution of 200 μg of phosphatidylcholine, 100 μg of cholesterol, 7.5 μg of dicetyl phosphate and 50 μg of a compound of the invention in a mixture of chloroform/methanol=2/1 (ca. 1 ml) was evaporated under reduced pressure to dryness followed by addition of 0.25 ml of a phosphate-buffered saline solution. The mixture was ultrasonicated (an output of 90 watts) for 5 min. and stirred (a vortex mixer) for 5 min. to form a liposome dispersion.
as §2, with “suction, liposome dispersions” for “suction, oily emulsions”, “Subsequently, human normal lymphocytes” for “Subsequently, promyelocytic leukemia cell line HL-60”, “with 2',7'-bis-(carboxyethyl)-5,6-carboxyfluorescene” for “with 2',7'-bis(carboxyethyl)-5,6-carboxyfluorescene”, “of 2×10^6” for “of 1×10^6”, “Each hole” for “Each well”
4: rhIL1β-treated group+compound 5A-containing liposome dispersion-treated group (2EG)
5: rhIL1β-treated group+compound 5B-containing liposome dispersion-treated group (3EG)
6: rhIL1β-treated group+compound 5C-containing liposome dispersion-treated group (4EG)
7: rhIL1β-treated group+compound 5D-containing liposome dispersion-treated group (5EG)
Amount adhered and % inhibition of adhesion of human normal lymphocytes as measured from fluorescence intensity are shown in Table 4 below.

[3] = test system: human normal lymphocytes adhering to vascular endothelial cells of the normal human umbilical cord; assay: inhibition of adhesion of human normal lymphocytes to rhIL1β-stimulated vascular endothelial cells, oily emulsion; details: 20 μg/ml equivalent; for Amount adhered (fluorescence intensity): rhIL1β 200 U/ml, 485 nm/535 nm
Description: as §1
Vascular endothelial cells of the normal human umbilical cord grown to confluence were stimulated in 24-well plates with 200 U/ml of rhIL1ββat 37° C. for 4 hours. After removal of the supernatant by suction, oily emulsions each prepared from a compound of the invention in an amount of 20 μg/ml equivalent were added except for the rhIL1β-untreated (Sample 1) and treated groups (Samples 2 and 3). The mixtures were then allowed to react at room temperature for 30 min. Subsequently, human normal lymphocytes with 2',7'-bis(carboxyethyl)-5,6-carboxyfluorescence acetoxymethyl ester fluorescent dye enclosed was added at a level of 2×10^6 cells per well followed by centrifugal operation at 100 rpm for 20 min. Each well was washed three times followed by addition of 0.5 ml of 0.5% Triton X-100 and stirring. The contents were divided into 100 μl portions in 96-well plates and measurement was made on a Baxter fluorometer at 485 nm/535 nm.
4: rhIL1β-treated group+2→3 sialyl Lewis X-containing oily emulsion dispersion-treated group
5: rhIL1β-treated group+compound 5E-containing oily emulsion dispersion-treated group (OEG)
as §3, §4, §5, §6
Amount adhered and percent inhibition of adhesion of human normal lymphocytes as measured from fluorescence intensity are shown in Table 5 below.

| SMILES | Amount of HL-60 cancer cells adhered (fluorescence intensity) [1] | % Inhibition of adhesion ([1]; HL-60 cells) [%] | Amount of human normal lymphocytes adhered (fluorescence intensity) [2] | % Inhibition of adhesion ([2]; human normal lymphocytes) [%] | % Inhibition of adhesion [3] [%] | Amount adhered (fluorescence intensity) [3] |
| --- | --- | --- | --- | --- | --- | --- |
| CCCCCCCCCCCCCCC(CCCCCCCCCCCCCC)C(=O)Nc1ccc(COCCOCCO[C@@H]2O[C@H](CO)[C@@H](O[C@@H]3O[C@H](CO)[C@H](O)[C@H](O[C@]4(C(=O)O)C[C@H](O)[C@@H](NC(C)=O)[C@H]([C@H](O)[C@H](O)CO)O4)[C@H]3O)[C@H](O[C@@H]3O[C@@H](C)[C@@H](O)[C@@H](O)[C@@H]3O)[C@H]2O)cc1 [Compound 5A, O-(5-acetamido-3,5-dideoxy-D-glycero-α-D-galacto-2-nonulopyranosylonic acid)-(2→3)-O-β-D-galactopyranosyl-(1→4)-[O-α-L-fucopyranosyl-(1→3)-O-β-D-glucopyranosyl]-(1→1)-5-O-para-(2-tetradecylhexadecanoyl)aminobenzyl-3-oxapentane-1,5-diol] | 13287 | 65.3 | 6882 | 61.9 | 65.8 | 9773 |
| CCCCCCCCCCCCCCC(CCCCCCCCCCCCCC)C(=O)Nc1ccc(COCCOCCOCCO[C@@H]2O[C@H](CO)[C@@H](O[C@@H]3O[C@H](CO)[C@H](O)[C@H](O[C@]4(C(=O)O)C[C@H](O)[C@@H](NC(C)=O)[C@H]([C@H](O)[C@H](O)CO)O4)[C@H]3O)[C@H](O[C@@H]3O[C@@H](C)[C@@H](O)[C@@H](O)[C@@H]3O)[C@H]2O)cc1 [Compound 5B, O-(5-acetamido-3,5-dideoxy-D-glycero-α-D-galacto-2-nonulopyranosylonic acid)-(2→3)-O-β-D-galactopyranosyl-(1→4)-[O-α-L-fucopyranosyl-(1→3)-O-β-D-glucopyranosyl]-(1→1)-8-O-para-(2-tetradecylhexadecanoyl)aminobenzyl-3,6-dioxaoctane-1,8-diol] | 6439 | – | 6993 | – | – | 10045 |
| CCCCCCCCCCCCCCC(CCCCCCCCCCCCCC)C(=O)Nc1ccc(COCCOCCOCCOCCO[C@@H]2O[C@H](CO)[C@@H](O[C@@H]3O[C@H](CO)[C@H](O)[C@H](O[C@]4(C(=O)O)C[C@H](O)[C@@H](NC(C)=O)[C@H]([C@H](O)[C@H](O)CO)O4)[C@H]3O)[C@H](O[C@@H]3O[C@@H](C)[C@@H](O)[C@@H](O)[C@@H]3O)[C@H]2O)cc1 [Compound 5C, O-(5-acetamido-3,5-dideoxy-D-glycero-α-D-galacto-2-nonulopyranosylonic acid)-(2→3)-O-β-D-galactopyranosyl-(1→4)-[O-α-L-fucopyranosyl-(1→3)-O-β-D-glucopyranosyl]-(1→1)-11-O-para-(2-tetradecylhexadecanoyl)aminobenzyl-3,6,9-trioxaundecane-1,11-diol] | 6762 | – | 10513 | – | – | 13563 |
| CCCCCCCCCCCCCCC(CCCCCCCCCCCCCC)C(=O)Nc1ccc(COCCOCCOCCOCCOCCO[C@@H]2O[C@H](CO)[C@@H](O[C@@H]3O[C@H](CO)[C@H](O)[C@H](O[C@]4(C(=O)O)C[C@H](O)[C@@H](NC(C)=O)[C@H]([C@H](O)[C@H](O)CO)O4)[C@H]3O)[C@H](O[C@@H]3O[C@@H](C)[C@@H](O)[C@@H](O)[C@@H]3O)[C@H]2O)cc1 [Compound 5D, O-(5-acetamido-3,5-dideoxy-D-glycero-α-D-galacto-2-nonulopyranosylonic acid)-(2→3)-O-β-D-galactopyranosyl-(1→4)-[O-α-L-fucopyranosyl-(1→3)-O-β-D-glucopyranosyl]-(1→1)-5-O-para-(2-tetradecylhexadecanoyl)aminobenzyl-3,6,9,12-tetraoxatetradecane-1,14-diol] | 2782 | – | 8817 | – | – | 10324 |
